# Source: patent publication US20230174556A1, “COMPOUNDS AS PROTEIN KINASE INHIBITORS” (Fochon Biosciences, Ltd., priority 2020, published 2023)
# Tested on: OCI-LY10 (PI3Kδ dependent) cells
# Assay: OCI-LY10 cell proliferation assay (MTS)
# Assay type: cell-based
# Conditions: Homo sapiens, OCI-Ly10, 72 h, inhibition of OCI-LY10 cells proliferation, 72 h incubation, MTS readout at 490 nm
# Method: MTS testing kit was purchased from Promega (Madison, WI, USA). The RPMI-1640, Fetal bovine serum and Penicillin-Streptomycin were purchased from BI (Biological Industries, Beit Haemek, Israel). Dimethyl sulfoxide (DMSO) was purchased from Sigma (St. Louis., MO, USA). OCI-LY10 cells were cultured in RPMI1640 supplemented with Penicillin-Streptomycin and 10% FBS.
# To investigate whether a compound is able to inhibit the activity of PI3Kδ in cells, a mechanism-based assay using OCI-LY10 (PI3Kδ dependent) cells was developed. In this assay, inhibition of PI3Kδ was detected by the inhibition of OCI-LY10 cells proliferation. Cells were plated into 96-well plates at a density of 10000 cells/well. Plates were incubated at 37° C., with 5 % CO2 for 4 h. Compounds were serially diluted and added to the plates with the final compound concentrations as 10000, 3333.3, 1111.1, […], 123.5, 41.2, 13.7, 4.6 and 1.5 nM. Plates were incubated at 37° C., with 5 % CO2 for 72 h. 20 µl MTS was added into each well and the plates were incubated at 37° C., with 5 % CO2 for exactly 2 h. The absorbance was measured by a microplate reader at 490 nm. IC50 was calculated using GraphPad Prism 5.0 software.
row,SMILES,IC50 [nM]
1,"COc1ncc(-c2nn([C@@H](C)c3cc4scc(Cl)n4c(=O)c3-c3cccc(F)c3)c3ncnc(N)c23)cc1NS(C)(=O)=O [Example 79, (S)-N-(5-(4-amino-1-(1-(3-chloro-6-(3-fluorophenyl)-5-oxo-5H-thiazolo[3,2-a]pyridin-7-yl)ethyl)-1H-pyrazolo[3,4-d]pyrimidin-3-yl)-2-methoxypyridin-3-yl)methanesulfonamide]",2
2,Cc1csc2nc([C@H](C)n3nc(-c4cnc(OC(C)C)c(C#N)c4)c4c(N)ncnc43)c(-c3cccc(F)c3)c(=O)n12 [Example 100],1
3,"COc1ncc(-c2nn([C@@H](C)c3cc4scc(Cl)n4c(=O)c3-c3cccc(F)c3)c3ncnc(N)c23)cn1 [Example 104, (S)-7-(1-(4-amino-3-(2-methoxypyrimidin-5-yl)-1H-pyrazolo[3,4-d]pyrimidin-1-yl)ethyl)-3-chloro-6-(3-fluorophenyl)-5H-thiazolo[3,2-a]pyridin-5-one]",64

# Same assay, conditions: inhibition of OCI-LY10 cells proliferation, 72 h incubation, MTS readout at 490 nm
row,SMILES,IC50 [nM]
1,"COc1ncc(-c2nn([C@@H](C)c3cc4scc(C)n4c(=O)c3-c3cccc(F)c3)c3ncnc(N)c23)cc1NS(C)(=O)=O [Example 77, (S)-N-(5-(4-amino-1-(1-(6-(3-fluorophenyl)-3-methyl-5-oxo-5H-thiazolo[3,2-a]pyridin-7-yl)ethyl)-1H-pyrazolo[3,4-d]pyrimidin-3-y1)-2-methoxypyridin-3-yl)methanesulfonamide]",1
2,"COc1ncc(-c2nn([C@@H](C)c3cc4scc(Cl)n4c(=O)c3-c3ccccc3)c3ncnc(N)c23)cc1NS(C)(=O)=O [Example 78, (S)-N-(5-(4-amino-1-(1-(3-chloro-5-oxo-6-phenyl-5H-thiazolo[3,2-α]pyridin-7-yl)ethyl)-1H-pyrazolo[3,4-d]pyrimidin-3-yl)-2-methoxypyridin-3-yl)metha nesulfonamide]",3
3,"Cc1csc2cc([C@H](C)n3nc(-c4ccc(OC(C)C)c(C#N)c4)c4c(N)ncnc43)c(-c3ccccc3)c(=O)n12 [Example 82, (S)-5-(4-amino-1-(1-(3-methyl-5-oxo-6-phenyl-5H-thiazolo[3,2-α]pyridin-7-yl)ethyl)-1H-pyrazolo[3,4-d]pyrimidin-3-yl)-2-isopropoxybenzonitrile]",1
4,"Cc1csc2cc([C@H](C)n3nc(-c4ccc(OC(C)C)c(C#N)c4)c4c(N)ncnc43)c(-c3cccc(F)c3)c(=O)n12 [Example 83, (S)-5-(4-amino-1-(1-(6-(3-fluorophenyl)-3-methyl-5-oxo-5H-thiazolo[3,2-α]pyridin-7-yl)ethyl)-1H-pyrazolo[3,4-d]pyrimidin-3-yl)-2-isopropoxybenzonitrile]",1
5,"CC(C)Oc1ccc(-c2nn([C@@H](C)c3cc4scc(Cl)n4c(=O)c3-c3ccccc3)c3ncnc(N)c23)cc1C#N [Example 84, (S)-5-(4-amino-l-(1-(3-chloro-5-oxo-6-phenyl-5H-thiazolo[3,2-α]pyridin-7-yl)ethyl)-1H-pyrazolo[3,4-d]pyrimidin-3-yl)-2-isopropoxy benzonitrile]",1
6,"CC(C)Oc1ccc(-c2nn([C@@H](C)c3cc4scc(Cl)n4c(=O)c3-c3cccc(F)c3)c3ncnc(N)c23)cc1C#N [Example 85, (S)-5-(4-amino-1-(1-(3-chloro-6-(3-fluorophenyl)-5-oxo-5H-thiazolo[3,2-α]pyridin-7-yl)ethyl)-1H-pyrazolo[3,4-d]pyrimidin-3-yl)-2-isopropoxybenzonitrile]",8
7,"CC(C)Oc1ccc(-c2nn([C@@H](C)c3cc4scc(Cl)n4c(=O)c3-c3ccccc3)c3ncnc(N)c23)cn1 [Example 86, (S)-7-(1-(4-amino-3-(6-isopropoxypyridin-3-yl)-1H-pyrazolo[3,4-d]pyrimidin-1-yl)ethyl)-3-chloro-6-phenyl-5H-thia zolo [3,2-α] pyridin-5-one]",2
8,"CC(C)Oc1ccc(-c2nn([C@@H](C)c3cc4scc(Cl)n4c(=O)c3-c3cccc(F)c3)c3ncnc(N)c23)cn1 [Example 87, (S)-7-(1-(4-amino-3-(6-isopropoxypyridin-3-yl)-1H-pyrazolo[3,4-d]pyrimidin-1-yl)ethyl)-3-chloro-6-(3-fluoropheny 1)-5H-thiazol[3,2-α]pyridin-5-one]",64
9,"Cc1csc2cc([C@H](C)n3nc(-c4cnc(OC(C)C)nc4)c4c(N)ncnc43)c(-c3ccccc3)c(=O)n12 [Example 88, (S)-7-(1-(4-amino-3-(2-isopropoxypyrimidin-5-yl)-1H-pyrazolo[3,4-d]pyrimidin-1-yl)ethyl)-3-methyl-6-phenyl-5H-thiazolo[3,2-α]pyridin-5-one]",34
10,"Cc1csc2cc([C@H](C)n3nc(-c4cnc(OC(C)C)nc4)c4c(N)ncnc43)c(-c3cccc(F)c3)c(=O)n12 [Example 89, (S)-7-(1-(4-amino-3-(2-isopropoxypyrimidin-5-yl)-1H-pyrazolo[3,4-d]pyrimidin-1-yl)ethyl)-6-(3-fluorophenyl)-3-methyl-5H-thiazolo[3,2-α]pyridin-5-one]",73
11,"CC(C)Oc1ncc(-c2nn([C@@H](C)c3cc4scc(Cl)n4c(=O)c3-c3ccccc3)c3ncnc(N)c23)cn1 [Example 90, (S)-7-(1-(4-amino-3-(2-isopropoxypyrimidin-5-yl)-1H-pyrazolo[3,4-d]pyrimidin-1-yl)ethyl)-3-chloro-6-phenyl-5H-thiazolo[3,2-α]pyridin-5-one]",7
12,"CC(C)Oc1ncc(-c2nn([C@@H](C)c3cc4scc(Cl)n4c(=O)c3-c3ccccc3)c3ncnc(N)c23)cc1F [Example 94, (S)-7-(1-(4-amino-3-(5-fluoro-6-isopropoxypyridin-3-yl)-1H-pyrazolo[3,4-d]pyrimidin-1-yl)ethyl)-3-chloro-6-phenyl-5H-thiazolo[3,2-α]pyridin-5-one]",30
13,"Cc1csc2cc([C@H](C)n3nc(-c4cnc(OC(C)C)c(C#N)c4)c4c(N)ncnc43)c(-c3ccccc3)c(=O)n12 [Example 96, (S)-5-(4-amino-1-(1-(3-methyl-5-oxo-6-phenyl-5H-thiazolo[3,2-α]pyridin-7-yl)ethyl)-1H-pyrazolo[3,4-d]pyrimidin-3-yl)-2-isopropoxynicotinonitrile]",21
14,"Cc1csc2cc([C@H](C)n3nc(-c4cnc(OC(C)C)c(C#N)c4)c4c(N)ncnc43)c(-c3cccc(F)c3)c(=O)n12 [Example 97, (S)-5-(4-amino-1-(1-(6-(3-fluoropheny 1)-3-methyl-5-oxo-5H-thiazolo[3,2-α]pyridin-7-yl)ethyl)-1H-pyrazolo[3,4-d]pyrimidin-3-yl)-2-isopropoxynicotinoni trile]",44
15,"CC(C)Oc1ncc(-c2nn([C@@H](C)c3cc4scc(Cl)n4c(=O)c3-c3ccccc3)c3ncnc(N)c23)cc1C#N [Example 98, (S)-5-(4-amino-1-(1-(3-chloro-5-oxo-6-phenyl-5H-thiazolo[3,2-α]pyridin-7-y 1)ethyl)-1H-pyrazolo[3,4-d]pyrimidin-3-yl)-2-isopropoxynicotinonitrile]",8
16,"CC(C)Oc1ncc(-c2nn([C@@H](C)c3cc4scc(Cl)n4c(=O)c3-c3cccc(F)c3)c3ncnc(N)c23)cc1C#N [Example 99, (S)-5-(4-amino-1-(1-(3-chloro-6-(3-fluorophenyl)-5-oxo-5H-thiazolo[3,2-α]pyridin-7-yl)ethyl)-1H-pyrazolo[3,4-d]pyrimidin-3-yl)-2-isopropoxynicotinoni trile]",8
17,"Cc1csc2nc([C@H](C)n3nc(-c4ccc(OC(C)C)c(C#N)c4)c4c(N)ncnc43)c(-c3cccc(F)c3)c(=O)n12 [Example 101, (S)-5-(4-amino-1-(1-(6-(3-fluoropheny 1)-3-methyl-5-oxo-5H-thiazolo[3,2-α]pyrimidin-7-yl)ethyl)-1H-pyrazolo[3,4-d]pyrimidin-3-yl)-2-isopropoxybenzon itrile]",18
18,"Cc1csc2nc([C@H](C)n3nc(-c4ccc(OC(C)C)nc4)c4c(N)ncnc43)c(-c3cccc(F)c3)c(=O)n12 [Example 102, (S)-7-(1-(4-amino-3-(6-isopropoxypyridin-3-yl)-1H-pyrazolo[3,4-d]pyrimidin-1-yl)ethyl)-6-(3-fluorophenyl)-3-methyl-5H-thiazolo[3,2-α]pyrimidin-5-one]",70
19,"COc1ncc(-c2nn([C@@H](C)c3cc4scc(C)n4c(=O)c3-c3cccc(F)c3)c3ncnc(N)c23)cn1 [Example 103, (S)-7-(1-(4-amino-3-(2-methoxypyrimidin-5-yl)-1H-pyrazolo[3,4-d]pyrimidin-1-yl)ethyl)-6-(3-fluorophenyl)-3-met hyl-5H-thiazolo[3,2-α]pyridin-5-one]",22
20,"Cc1csc2nc([C@H](C)n3nc(-c4cnc(OC(C)C)c(F)c4)c4c(N)ncnc43)c(-c3cccc(F)c3)c(=O)n12 [Example 105, (S)-7-(1-(4-amino-3-(5-fluoro-6-isopropoxypyridin-3-yl)-1H-pyrazolo[3,4-d]pyrimidin-1-yl)ethyl)-6-(3-fluorophenyl)-3-methyl-5H-thiazolo[3,2-α]pyrimidin-5-one]",70
21,"Cc1csc2nc([C@H](C)n3nc(-c4cnc(OC(C)C)c(C#N)c4)c4c(N)ncnc43)c(-c3cccc(F)c3)c(=O)n12 [Example 106, (S)-5-(4-amino-1-(1-(6-(3-fluoropheny 1)-3-methyl-5-oxo-5H-thiazolo[3,2-α]pyrimidin-7-yl)ethyl)-1H-pyrazolo[3,4-d]pyrimidin-3-yl)-2-isopropoxynicotin onitrile]",43
